# Experimental data from ChEMBL document CHEMBL1201862, “PubChem BioAssay data set” (2004).
# Active and inactive are the calls of the source.
# Tests used:
# BJ [1] = assay: BJ-TERT fibroblast viability loss – cell-based, RAS-independent, luminescence, dose response (AID 1933); type: functional; conditions: Homo sapiens
# BJ [2] = assay: cells; type: functional, cell-based; conditions: Homo sapiens
# BJ [3] = assay: BJ-TERT-LT-ST fibroblast viability loss – cell-based, RAS-independent, luminescence, dose response (AID 1935); type: functional; conditions: Homo sapiens;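 note: BJ fibroblasts immortalized with TERT plus LT and ST oncogenes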
# [4] = DRD fibroblast viability loss – cell-based, non-viral oncogenic, luminescence, dose response (AID 1934); type: functional; conditions: Homo sapiens
# Fatty acid synthase [5] = molecular target: T1, Fatty acid synthase (Homo sapiens, UniProt P49327); assay: inhibition of human FAS-TE enzyme activity – biochemical, endpoint fluorescence intensity, uHTS hits, dose response (AID 624327); type: functional;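 note: fluorescence from hydrolysis of an O-methyl fluorescein acyl ester substrate by the enzyme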
# Fatty acid synthase [6] = molecular target: T1, Fatty acid synthase; assay: inhibition of human FAS-TE enzyme activity – biochemical, kinetic fluorescence intensity, dose response (AID 624326); type: functional;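 note: rate of fluorescence rise from hydrolysis of a fluorogenic O-methyl fluorescein ester substrate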
# [7] = Dd2 parasite growth inhibition in erythrocytes – SYBR Green, dry powder samples, set 9, dose response (AID 1159568); type: functional, cell-based
# Leucine aminopeptidase = molecular target: T2, Leucine aminopeptidase (Plasmodium falciparum 3D7, UniProt Q8IL11); assay: P. falciparum M17LAP inhibitors, primary screen, biochemical, fluorogenic H-Leu-NHMec substrate, 1536-well (AID 1619); type: functional
# T2 sequence (Q8IL11 whole entry): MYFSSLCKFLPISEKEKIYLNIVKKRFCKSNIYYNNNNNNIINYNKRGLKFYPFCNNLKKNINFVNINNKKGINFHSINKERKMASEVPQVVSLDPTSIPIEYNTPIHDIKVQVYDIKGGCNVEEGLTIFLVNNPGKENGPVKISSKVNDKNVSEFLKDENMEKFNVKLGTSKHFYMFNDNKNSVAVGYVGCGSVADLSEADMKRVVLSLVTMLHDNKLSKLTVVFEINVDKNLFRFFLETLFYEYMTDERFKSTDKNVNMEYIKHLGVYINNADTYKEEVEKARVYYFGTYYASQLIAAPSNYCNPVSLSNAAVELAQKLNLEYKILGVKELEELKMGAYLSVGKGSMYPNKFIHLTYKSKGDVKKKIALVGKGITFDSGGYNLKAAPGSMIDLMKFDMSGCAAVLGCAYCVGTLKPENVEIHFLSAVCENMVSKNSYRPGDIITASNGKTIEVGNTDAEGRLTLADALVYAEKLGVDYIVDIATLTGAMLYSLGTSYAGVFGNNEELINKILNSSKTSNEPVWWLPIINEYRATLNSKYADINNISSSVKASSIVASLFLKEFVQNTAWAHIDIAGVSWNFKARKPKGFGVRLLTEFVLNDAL
# [8] = molecular target: T3, RNA-binding protein pos-1 (Caenorhabditis elegans, UniProt G5EF15); assay: disruptors of C. elegans POS-1 RNA interaction – biochemical, fluorescence polarization, dose response (AID 1964);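 note: purified POS-1 fused to maltose binding protein made in E. coli; potency of compounds blocking POS-1 binding to fluorescent RNA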
# T3 sequence (G5EF15 whole entry): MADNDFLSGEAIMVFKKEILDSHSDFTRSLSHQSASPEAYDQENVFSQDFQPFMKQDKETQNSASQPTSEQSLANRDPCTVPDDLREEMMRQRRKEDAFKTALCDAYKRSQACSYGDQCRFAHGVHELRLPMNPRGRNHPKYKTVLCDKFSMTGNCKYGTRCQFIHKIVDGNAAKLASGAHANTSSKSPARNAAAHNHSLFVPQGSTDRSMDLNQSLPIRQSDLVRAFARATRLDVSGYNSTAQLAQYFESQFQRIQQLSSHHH
# [9] = molecular target: T4, Zinc finger protein mex-5 (Caenorhabditis elegans, UniProt Q9XUB2); assay: potency of MEX-5 RNA-binding blockers – biochemical, C. elegans, fluorescence polarization, dose response (AID 1960)
# T4 sequence (Q9XUB2 whole entry): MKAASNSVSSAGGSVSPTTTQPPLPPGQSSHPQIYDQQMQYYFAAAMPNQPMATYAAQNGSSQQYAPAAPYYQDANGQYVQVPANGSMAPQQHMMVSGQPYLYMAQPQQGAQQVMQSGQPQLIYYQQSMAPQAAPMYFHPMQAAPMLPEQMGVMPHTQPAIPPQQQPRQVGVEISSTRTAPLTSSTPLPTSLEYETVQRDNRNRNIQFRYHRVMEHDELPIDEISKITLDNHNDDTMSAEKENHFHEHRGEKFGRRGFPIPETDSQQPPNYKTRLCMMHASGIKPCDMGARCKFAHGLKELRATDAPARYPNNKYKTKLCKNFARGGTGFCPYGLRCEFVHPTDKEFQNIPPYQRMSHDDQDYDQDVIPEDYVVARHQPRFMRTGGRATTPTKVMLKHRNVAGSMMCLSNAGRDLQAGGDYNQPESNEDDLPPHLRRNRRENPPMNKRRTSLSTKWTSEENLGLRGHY
# [10] = NIH-3T3 fibroblast cytotoxicity, dose response, cytotoxicity control, cell-based, fluorescence, Alamar Blue, secondary assay (AID 2327); type: functional;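 note: NIH-3T3 mouse fibroblasts cultured with fluconazole at 8 µg/mL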
# [11] = fluconazole-exposed Candida albicans growth modulators – fluorescence, retest, confirmation (AID 2467); type: functional, cell-based
# INS1 = assay: INS-1E survival protection against cytokine death – cell-based, luminescence, retest, dose response (AID 449756); type: functional; conditions: Rattus norvegicus;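 note: cell death triggered by IL-1 beta plus TNF-alpha plus IFN-gamma mixture; protective hits raise ATP signal compared with cytokine alone wells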
# [12] = molecular target: FAD-linked sulfhydryl oxidase ALR (Homo sapiens, UniProt P55789); assay: ALR-catalysed DTT oxidation blockers – biochemical, H2O2 detection, luminescence, cherry-pick, dose response (AID 493248)
# [13] = test system: Streptococcus sp. 'group A'; assay: Streptococcus pyogenes SK(-)GAS viability under kanamycin – luminescence, BacTiterGlo, confirmation, counter-screen for streptokinase expression inhibitor project, dose response (AID 1900); type: functional, organism-based
# Streptokinase A = molecular target: T5, Streptokinase A (Streptococcus pyogenes serotype M1, UniProt P10520); assay: viability-normalized secreted streptokinase activity reduction – plasminogen activation absorbance, OD405, dose response (AID 1914); type: functional, Streptococcus pyogenes M1 GAS;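 note: secreted streptokinase activity via plasminogen activation per viability signal from cell pellet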
# T5 sequence (P10520 whole entry): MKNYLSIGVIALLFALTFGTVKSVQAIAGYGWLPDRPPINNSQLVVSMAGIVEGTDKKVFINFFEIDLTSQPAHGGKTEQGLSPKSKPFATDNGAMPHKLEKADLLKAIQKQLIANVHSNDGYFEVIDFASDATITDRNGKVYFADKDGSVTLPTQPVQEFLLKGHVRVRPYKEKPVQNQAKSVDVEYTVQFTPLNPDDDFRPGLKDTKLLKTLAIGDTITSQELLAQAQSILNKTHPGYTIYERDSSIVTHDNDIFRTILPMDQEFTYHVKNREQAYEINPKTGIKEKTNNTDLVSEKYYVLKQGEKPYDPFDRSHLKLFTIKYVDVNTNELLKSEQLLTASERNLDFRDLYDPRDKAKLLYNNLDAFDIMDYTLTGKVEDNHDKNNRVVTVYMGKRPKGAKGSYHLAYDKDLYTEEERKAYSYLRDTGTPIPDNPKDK
# Large T antigen = Large T antigen (Simian virus 40, UniProt P03070); type: functional, Betapolyomavirus macacae;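 note: Confirmatory-stage PubChem screen for compounds that inhibit SV40 T antigen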
# [14] = microbe, parasite or virus in culture; type: functional; conditions: Mycobacterium tuberculosis
# Streptococcus = assay: GAS UMAA2166 growth inhibition – luminescence, BacTiterGlo, counter-screen for streptokinase expression inhibitor project, dose response (AID 1915); type: functional, organism-based;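 note: potency for reduction of bacterial viability or growth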
# T1 sequence (P49327 whole entry): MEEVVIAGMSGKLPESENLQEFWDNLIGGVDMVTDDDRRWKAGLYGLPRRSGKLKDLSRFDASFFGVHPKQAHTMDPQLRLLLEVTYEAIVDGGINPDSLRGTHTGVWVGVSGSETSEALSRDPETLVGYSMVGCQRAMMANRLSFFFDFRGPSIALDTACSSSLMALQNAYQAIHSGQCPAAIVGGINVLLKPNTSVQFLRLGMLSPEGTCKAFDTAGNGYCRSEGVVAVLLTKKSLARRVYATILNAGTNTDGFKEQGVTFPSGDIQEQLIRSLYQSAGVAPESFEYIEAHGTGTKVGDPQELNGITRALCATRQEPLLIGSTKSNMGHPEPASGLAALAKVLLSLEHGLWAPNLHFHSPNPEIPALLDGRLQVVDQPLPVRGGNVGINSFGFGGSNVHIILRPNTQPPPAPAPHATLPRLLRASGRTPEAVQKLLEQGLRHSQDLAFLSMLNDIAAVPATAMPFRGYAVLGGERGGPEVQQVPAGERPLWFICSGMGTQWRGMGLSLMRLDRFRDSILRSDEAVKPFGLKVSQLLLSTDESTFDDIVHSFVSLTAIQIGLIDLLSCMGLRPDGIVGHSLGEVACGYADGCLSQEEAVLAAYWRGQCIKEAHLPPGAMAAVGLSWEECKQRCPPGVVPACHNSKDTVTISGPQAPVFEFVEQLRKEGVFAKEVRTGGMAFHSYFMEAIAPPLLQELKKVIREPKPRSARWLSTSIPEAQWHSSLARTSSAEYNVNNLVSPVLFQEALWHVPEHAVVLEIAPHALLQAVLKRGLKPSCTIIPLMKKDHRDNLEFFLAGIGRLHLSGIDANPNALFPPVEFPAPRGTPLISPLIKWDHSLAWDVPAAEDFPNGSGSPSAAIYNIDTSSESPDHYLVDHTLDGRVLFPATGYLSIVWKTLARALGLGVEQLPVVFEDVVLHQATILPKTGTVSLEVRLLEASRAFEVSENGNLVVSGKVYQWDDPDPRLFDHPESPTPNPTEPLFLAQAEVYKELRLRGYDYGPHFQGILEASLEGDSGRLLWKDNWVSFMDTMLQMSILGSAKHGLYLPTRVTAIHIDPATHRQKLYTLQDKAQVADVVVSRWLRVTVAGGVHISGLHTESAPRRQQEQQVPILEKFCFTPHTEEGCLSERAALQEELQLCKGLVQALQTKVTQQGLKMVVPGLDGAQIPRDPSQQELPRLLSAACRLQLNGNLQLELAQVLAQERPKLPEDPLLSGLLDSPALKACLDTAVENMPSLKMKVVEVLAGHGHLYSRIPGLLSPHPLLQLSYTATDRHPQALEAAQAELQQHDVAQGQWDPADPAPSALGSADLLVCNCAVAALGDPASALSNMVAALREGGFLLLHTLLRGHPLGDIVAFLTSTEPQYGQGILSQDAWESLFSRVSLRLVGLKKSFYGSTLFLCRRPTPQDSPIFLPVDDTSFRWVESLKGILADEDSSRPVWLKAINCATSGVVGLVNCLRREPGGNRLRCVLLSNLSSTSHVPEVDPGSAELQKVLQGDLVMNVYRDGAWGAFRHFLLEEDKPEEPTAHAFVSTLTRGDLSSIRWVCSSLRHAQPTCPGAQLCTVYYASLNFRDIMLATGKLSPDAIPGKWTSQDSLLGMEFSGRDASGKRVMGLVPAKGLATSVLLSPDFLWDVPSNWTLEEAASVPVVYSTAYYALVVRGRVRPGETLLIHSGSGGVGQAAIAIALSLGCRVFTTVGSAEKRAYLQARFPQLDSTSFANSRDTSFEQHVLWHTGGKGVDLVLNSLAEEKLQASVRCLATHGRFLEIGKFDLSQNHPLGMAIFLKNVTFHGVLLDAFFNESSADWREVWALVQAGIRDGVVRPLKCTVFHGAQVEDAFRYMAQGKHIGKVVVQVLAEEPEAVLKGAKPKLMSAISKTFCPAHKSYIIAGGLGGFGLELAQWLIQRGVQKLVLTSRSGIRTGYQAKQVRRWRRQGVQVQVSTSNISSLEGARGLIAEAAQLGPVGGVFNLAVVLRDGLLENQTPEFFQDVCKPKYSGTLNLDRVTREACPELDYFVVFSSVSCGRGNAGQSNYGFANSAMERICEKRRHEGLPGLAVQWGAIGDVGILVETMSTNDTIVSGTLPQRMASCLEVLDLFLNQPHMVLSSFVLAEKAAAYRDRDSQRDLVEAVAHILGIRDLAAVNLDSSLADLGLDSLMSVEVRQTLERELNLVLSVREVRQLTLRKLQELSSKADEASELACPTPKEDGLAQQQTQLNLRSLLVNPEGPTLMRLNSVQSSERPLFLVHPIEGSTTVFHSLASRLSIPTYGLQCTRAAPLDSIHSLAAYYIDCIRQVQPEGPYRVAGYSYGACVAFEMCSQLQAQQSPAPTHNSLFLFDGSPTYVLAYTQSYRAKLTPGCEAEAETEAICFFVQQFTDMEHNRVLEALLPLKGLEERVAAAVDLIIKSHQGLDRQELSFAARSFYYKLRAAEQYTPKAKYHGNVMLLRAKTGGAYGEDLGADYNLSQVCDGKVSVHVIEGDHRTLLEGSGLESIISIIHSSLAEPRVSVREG
# FAD-linked sulfhydryl oxidase ALR, sequence (P55789 whole entry): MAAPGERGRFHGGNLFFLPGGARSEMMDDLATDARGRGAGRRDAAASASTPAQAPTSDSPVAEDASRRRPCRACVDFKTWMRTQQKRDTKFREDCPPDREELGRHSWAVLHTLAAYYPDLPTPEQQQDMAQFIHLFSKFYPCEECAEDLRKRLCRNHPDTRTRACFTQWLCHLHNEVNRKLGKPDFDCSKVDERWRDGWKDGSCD
# Large T antigen, sequence (P03070 whole entry): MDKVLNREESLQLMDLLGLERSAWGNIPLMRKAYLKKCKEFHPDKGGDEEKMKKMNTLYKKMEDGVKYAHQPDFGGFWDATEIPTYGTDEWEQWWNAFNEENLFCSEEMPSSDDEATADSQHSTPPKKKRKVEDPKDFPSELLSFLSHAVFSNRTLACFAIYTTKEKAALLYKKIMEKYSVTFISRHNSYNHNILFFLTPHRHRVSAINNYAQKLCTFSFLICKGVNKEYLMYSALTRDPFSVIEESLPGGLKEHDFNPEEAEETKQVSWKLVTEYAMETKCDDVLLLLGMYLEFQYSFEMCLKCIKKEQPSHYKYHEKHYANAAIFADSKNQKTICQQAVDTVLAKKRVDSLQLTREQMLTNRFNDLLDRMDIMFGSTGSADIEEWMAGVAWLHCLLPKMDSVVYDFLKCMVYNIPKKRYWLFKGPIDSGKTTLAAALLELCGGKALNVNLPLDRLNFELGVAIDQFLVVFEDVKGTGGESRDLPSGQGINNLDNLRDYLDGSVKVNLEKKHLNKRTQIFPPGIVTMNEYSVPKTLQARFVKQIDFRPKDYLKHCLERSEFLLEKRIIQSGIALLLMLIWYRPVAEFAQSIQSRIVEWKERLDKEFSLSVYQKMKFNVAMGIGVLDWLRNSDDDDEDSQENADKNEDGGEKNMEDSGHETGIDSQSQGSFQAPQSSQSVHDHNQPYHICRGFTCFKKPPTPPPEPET
compound,measurement,setting,value
CCC(=O)c1ccc(OCC(=O)Nc2ccccc2N2CCCCC2)cc1,EC50,BJ [1],> 150 µM (not active)
same,EC50,BJ [2],35.6 µM (active)
same,EC50,BJ [3],> 150 µM (not active)
same,EC50,[4],> 150 µM (not active)
CCN(C(=O)COC(=O)c1cc([N+](=O)[O-])ccc1N1CCOCC1)C1CCCCC1,IC50,Fatty acid synthase [5],1.13 µM (active)
same,IC50,Fatty acid synthase [6],4.08 µM (active)
COc1ccc2c3c([nH]c2c1)[C@H](CO)N(C(C)=O)CC31CCN(C(=O)Nc2ccc(F)cc2F)CC1,AC50,[7],0.548 µM (active)
CSc1nnc(-c2ccccc2/N=C/c2c(C)nn(-c3ccccc3)c2O)c(O)n1,IC50,Leucine aminopeptidase,48.6 µM (active)
Cc1nn(C)c(C)c1CN(C)C(=O)C1c2ccccc2Oc2ccccc21,EC50,[8],15.5 µM (active)
same,EC50,[9],9.86 µM (active)
CN1CCc2nc(SCc3ccccc3Br)c(C#N)cc2C1,IC50,Fatty acid synthase [5],7.9 µM (active)
same,IC50,Fatty acid synthase [6],6.01 µM (active)
O=C(Cc1ccccn1)N1CC2(C1)[C@H](c1ccccc1)[C@H](CO)N2C(=O)c1ccncc1,AC50,[7],30 µM (active)
CCOC(=O)c1cc2c(=O)n3ccccc3nc2n(C(C)C)/c1=N\C(=O)c1ccncc1,EC50,[8],> 300 µM (not active)
same,EC50,[9],> 300 µM (not active)
Cc1cccc(C2CC3(CC(C)(C)N=C(S)N3)Oc3cc(O)ccc32)c1 (centres undefined),EC50,[10],> 150 µM (inactive)
same,EC50,[11],2.44 µM (active)
C=CCN1C(=O)N/C(=C/c2ccc(N3CCOCC3)o2)C1=O,EC50,[10],20 µM (active)
same,EC50,[11],2.15 µM (active)
same,AC50,INS1,> 260 µM (inactive)
COC(=O)c1cc(C(=O)Nc2nnc(CC(C)(C)C)s2)cc([N+](=O)[O-])c1,IC50,Fatty acid synthase [5],12.7 µM (active)
same,IC50,Fatty acid synthase [6],11.2 µM (active)
O=C(c1cc2cc([N+](=O)[O-])ccc2oc1=O)N1CCN(C2CCCCC2)CC1,IC50,Fatty acid synthase [5],13.9 µM (active)
same,IC50,Fatty acid synthase [6],9.68 µM (active)
CCN(CC)c1ccc(NC(=O)Cn2cc3c(n2)CCC(C)C3)c(C)c1 (centres undefined),IC50,Leucine aminopeptidase,6.41 µM (active)
same,AC50,[12],48.8 µM (active)
N=C(N)N/N=C1C=C/C(=N\NC(N)=S)C=C\1 [AMBAZONE],EC50,[8],76.5 µM (active)
same,EC50,[13],< 0.06 µM (active)
same,EC50,[9],9.73 µM (active)
same,EC50,Streptokinase A,> 150 µM (not active)
same,IC50,Large T antigen,13.7 µM (active)
same,CC50,[14],> 40 µM (active)
same,EC50,Streptococcus,0.35 µM (active)
CCOC(=O)c1cccc(NC(=O)CSc2nc(N)cc(N)n2)c1,IC50,Leucine aminopeptidase,13.8 µM (active)
